According to US10519183B2, “Amine solvate of sodium-glucose linked transporter inhibitor, and preparation method and application thereof” (Youngene Therapeutics Co., Ltd., priority 2016, dated 2019):

Tests used:
[1] = stress study on physical stability and chemical stability (80° C., one week); type: physicochemical; settings: for Chemical purity: HPLC
Protocol: The stress study on the physical stability and chemical stability of the diethylamine solvate of the compound of formula (I) and the amorphous compound of formula (I) were carried out. The diethylamine solvate of the compound of formula (I) obtained in Example 3 and the amorphous compound of formula (I) were placed in glass vials respectively in duplicate, about 10 mg each sample. These samples for stability test were placed in an incubator at 80° C. for one week. After being placed for one week, one sample was used for the chemical purity analysis by HPLC method. The other sample was used for the crystal characterization by XRPD.

[2] = molecular target: T1, SGLT2 (Homo sapiens, UniProt P31639); settings: cited from earlier work
T1 sequence (P31639 1-672): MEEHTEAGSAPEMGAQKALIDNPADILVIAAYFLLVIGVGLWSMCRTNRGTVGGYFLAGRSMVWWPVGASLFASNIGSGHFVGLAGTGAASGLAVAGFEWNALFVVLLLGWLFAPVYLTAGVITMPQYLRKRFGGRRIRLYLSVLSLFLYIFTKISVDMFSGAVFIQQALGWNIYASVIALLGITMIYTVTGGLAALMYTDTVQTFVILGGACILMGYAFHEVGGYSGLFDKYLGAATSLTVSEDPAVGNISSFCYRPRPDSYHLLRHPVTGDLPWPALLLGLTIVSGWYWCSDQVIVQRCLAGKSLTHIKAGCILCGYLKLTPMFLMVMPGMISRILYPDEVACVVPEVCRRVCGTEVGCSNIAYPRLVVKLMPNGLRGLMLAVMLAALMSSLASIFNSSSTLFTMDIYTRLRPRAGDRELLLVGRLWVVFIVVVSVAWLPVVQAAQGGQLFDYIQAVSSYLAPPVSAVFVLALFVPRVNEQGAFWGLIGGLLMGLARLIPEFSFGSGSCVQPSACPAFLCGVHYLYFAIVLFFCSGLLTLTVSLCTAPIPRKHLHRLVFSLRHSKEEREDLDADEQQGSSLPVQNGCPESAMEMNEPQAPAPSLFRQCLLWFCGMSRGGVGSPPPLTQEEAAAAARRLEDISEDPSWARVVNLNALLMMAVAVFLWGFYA

[3] = molecular target: T2, SGLT1 (Homo sapiens, UniProt P13866); settings: cited from earlier work
T2 sequence (P13866 1-664): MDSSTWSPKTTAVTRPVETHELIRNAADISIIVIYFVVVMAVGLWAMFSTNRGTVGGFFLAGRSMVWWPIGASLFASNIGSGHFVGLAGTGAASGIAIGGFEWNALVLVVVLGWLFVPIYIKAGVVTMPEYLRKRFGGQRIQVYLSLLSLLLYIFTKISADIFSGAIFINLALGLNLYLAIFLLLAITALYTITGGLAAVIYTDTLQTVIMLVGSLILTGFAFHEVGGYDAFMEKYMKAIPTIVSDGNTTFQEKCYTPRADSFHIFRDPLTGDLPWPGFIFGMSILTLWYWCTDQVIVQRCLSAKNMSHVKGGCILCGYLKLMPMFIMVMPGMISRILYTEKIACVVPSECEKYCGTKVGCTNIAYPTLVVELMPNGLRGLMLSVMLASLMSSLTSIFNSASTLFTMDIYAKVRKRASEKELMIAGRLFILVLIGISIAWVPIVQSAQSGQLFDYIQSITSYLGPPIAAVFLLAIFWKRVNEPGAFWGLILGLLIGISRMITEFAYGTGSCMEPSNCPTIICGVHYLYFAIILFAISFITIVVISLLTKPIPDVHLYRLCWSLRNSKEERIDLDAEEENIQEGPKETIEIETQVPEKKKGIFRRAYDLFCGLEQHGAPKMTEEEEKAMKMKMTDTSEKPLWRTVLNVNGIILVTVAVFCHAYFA

CCc1ccc([C@]23OC[C@](CO)(O2)[C@@H](O)[C@H](O)[C@H]3O)cc1Cc1ccc2c(c1)OCCO2 [compound of formula (I), (1S,2S,3S,4R,5S)-5-(3-((2,3-dihydrobenzo[b][1,4]dioxin-6-yl)methyl)-4-ethylphenyl)-1-(hydroxymethyl)-6,8-dioxabicyclo[3.2.1]octane-2,3,4-triol]
degradation at high temperature ([1]; 80° C., stress stability test): changed and degraded immediately | Chemical purity ([1]; After being placed for one week at 80° C.): 90.2% | Chemical purity ([1]; Initial state of the samples): 95.1% | inhibitory effect on SGLT2 [2]: very significant inhibitory effect | inhibitory effect on SGLT1 [3]: significant inhibitory effect
